One series relates to tubulin. The series is described as follows: Tubulin polymerization-depolymerization (microtubule assembly-disassembly) assay. In kind it is biochemical, calf. The settings on record: CaCl2, 10^-6 M drug, 37° C., in words.
The subject of another series is tumor cell lines. The series is described as follows: Cytotoxicity, summary over tumor cell lines (XTT). The class given is cell-based, human and murine.
Series [1] relates to RPMI-7666 blood lymphoblasts. The series is described as follows: XTT dye binding cytotoxicity assay, RPMI-7666. The class given is cell-based. The settings on record: Homo sapiens; RPMI-7666, blood lymphoblasts (untransformed); 72 h; read-out: IC50. On the procedure: (§1) All cell lines described herein were obtained from the ATCC and maintained in media formulations as recommended by the supplier. The cell lines were tested for mycoplasma contamination prior to incubation at 37° C. in 5% carbon dioxide. Normal human dermal fibroblasts, peripheral blood lymphoblasts and mammary epithelial cells were obtained from Clonogenic Cor., San Diego, Calif. and were maintained under the above incubation conditions in special media provided by the supplier.
(§2) Antiproliferative activities of the onium salts were determined using the XTT dye binding assay. Cells were harvested with trypsin/EDTA (Irvine Scientific), washed, resuspended in the appropriate medium, and counted in a hemocytometer using Trypan Blue to determine viability. Then 10^4 cells/well were added to 96 well microtiter plates and incubated for 24 hours before addition of drug at concentrations in the range of 10^-4 to 10^-13 molar by direct addition from DMSO solutions. After 72 hours, XTT binding dye was added and incubation was continued for 4 hours. The inhibition of cell proliferation was quantified using a Molecular Devices Microplate Reader. The absorbance of XTT was measured at […]. The concentration of drug which inhibited growth of cells by 50% was calculated from duplicated determinations.
In general terms: Formazan colour is commonly taken as a measure of viable cells.

The test system of series [2] is HT-29 colon carcinoma cells. As to the kind of experiment: XTT dye binding cytotoxicity assay, HT-29. In kind it is cell-based. The settings on record: Homo sapiens; HT-29, colon carcinoma; 72 h; read-out: IC50. As to the method:
as §1, §2

Series [3] deals with M-24 metastatic melanoma cells. The series is described as follows: XTT dye binding cytotoxicity assay, M-24. In kind it is cell-based. The note with it: Homo sapiens, M24; M-24, melanoma-metastatic; 72 h; read-out: IC50. On the procedure:
as §1, §2

The next series concerns NHDF dermal fibroblast. As to the kind of experiment: XTT dye binding cytotoxicity assay, NHDF. In kind it is cell-based. The note with it: Homo sapiens, dermal fibroblast (untransformed), 72 h, read-out: IC50. On the procedure: as §1, §2
The subject of the next series is L-1210 leukemia cells. As to the kind of experiment: XTT dye binding cytotoxicity assay, L-1210. The class given is cell-based, mouse. The settings on record: L1210; L-1210, mouse leukemia; 72 h; read-out: IC50. On the procedure:
as §1, §2

Series [4] concerns BT-549 breast carcinoma cells. As to the kind of experiment: XTT dye binding cytotoxicity assay, BT-549. The note with it: Homo sapiens; BT-549, breast carcinoma; 72 h; read-out: IC50. In kind it is cell-based. As to the method:
as §1, §2

Series [5] has as its system PC-3 prostate carcinoma tumor xenograft. The series is described as follows: PC-3 prostate tumor xenograft in nude mice.
Series [6] is described as follows: Stability in water, assay medium and storage solution. In kind it is physicochemical. An excerpt: used and differing ultraviolet absorption maxima between the prodrug and the drug, the stability was easily assayed using UV detection. In all the ensuing studies, the only degradation products detected were the taxoids and the pyridinone that results from the hydrolysis of the onium salts. In water, these compounds show surprising stability for up to weeks depending upon the storage conditions. […] The fraction of ethyl acetated extractable material was between 18 and 23% for all onium salts and 95% for the present compounds.
FIG. 2 illustrates the results of GTP induced polymerization and calcium chloride induced depolymerization of tubulin in the presence of taxol and the 2'- and 7-MPA substituted derivatives.

Series [7] relates to Molt-4 T-cell leukemia cells. The series is described as follows: XTT dye binding cytotoxicity assay, Molt-4. In kind it is cell-based. The note with it: Homo sapiens; Molt-4, T-cell leukemia; 72 h; read-out: IC50. On the procedure:
as §1, §2

Series [8] has as its system SK-N-SH neuroblastoma cells. As to the kind of experiment: XTT dye binding cytotoxicity assay, SK-N-SH. The class given is cell-based. The settings on record: Homo sapiens, neuroblastoma, 72 h, read-out: IC50. As to the method:
as §1, §2

The subject of series [9] is UCLA-P3 lung carcinoma cells. The series is described as follows: XTT dye binding cytotoxicity assay, UCLA-P3. The note with it: Homo sapiens, UCLA P-3; UCLA-P3, lung carcinoma; 72 h; read-out: IC50. In kind it is cell-based. On the procedure: as §1, §2
The subject of series [10] is 786-0 renal cell carcinoma cells. As to the kind of experiment: XTT dye binding cytotoxicity assay, 786-0. The settings on record: Homo sapiens; 786-0, renal cell carcinoma; 72 h; read-out: IC50. The class given is cell-based. As to the method:
as §1, §2

The subject of series [11] is SIHA squamous carcinoma cells. The series is described as follows: XTT dye binding cytotoxicity assay, SIHA. In kind it is cell-based. The note with it: Homo sapiens; SIHA, squamous carcinoma; 72 h; read-out: IC50. On the procedure: as §1, §2
The test system of series [12] is PC-3 prostate carcinoma cells. The series is described as follows: XTT dye binding cytotoxicity assay, PC-3. The class given is cell-based. The settings on record: Homo sapiens, 72 h. As to the method:
as §1, §2

A short description of series [13]: Toxicity and survival in vivo (tumor bearing nude mice).
Series [14] can be described thus: Plasma stability and prodrug reversion (ethyl acetate extraction, HPLC). The note with it: human, plasma.
Series [15] relates to HL-60 promyelocytic leukemia cells. The series is described as follows: XTT dye binding cytotoxicity assay, HL-60. In kind it is cell-based. The settings on record: Homo sapiens; HL-60, promyelocytic leukemia; 72 h; read-out: IC50. As to the method: as §1, §2
The subject of another series is human tumor xenografts. As to the kind of experiment: In vivo antitumor effect (human tumor xenografts in nude mice). In general terms: Xenograft models place foreign cells or tissue in a host animal.
In series [16] the test system is Capan 1 pancreas cancer cells. The series is described as follows: XTT dye binding cytotoxicity assay, Capan 1. The class given is cell-based. The note with it: Homo sapiens; Capan 1, pancreas cancer; 72 h; read-out: IC50. As to the method:
as §1, §2

For series [17], the system named is OVCAR-3 ovarian carcinoma cells. As to the kind of experiment: XTT dye binding cytotoxicity assay, OVCAR-3. The class given is cell-based. The note with it: Homo sapiens; OVCAR-3, ovarian carcinoma; 72 h; read-out: IC50. As to the method:
as §1, §2

A further series has as its system U-2511 CNS cancer cells. The series is described as follows: XTT dye binding cytotoxicity assay, U-2511. In kind it is cell-based. The note with it: Homo sapiens; U-2511, CNS cancer; 72 h; read-out: IC50. As to the method: as §1, §2
In the next series the test system is SK-Mel-28 melanoma cells. As to the kind of experiment: XTT dye binding cytotoxicity assay, SK-Mel-28. The class given is cell-based. The note with it: Homo sapiens; SK-Mel-28, melanoma; 72 h; read-out: IC50. On the procedure:
as §1, §2

Series [18] concerns HMEC mammary epithelial cells. As to the kind of experiment: XTT dye binding cytotoxicity assay, HMEC. The class given is cell-based. The settings on record: Homo sapiens, mammary epithelial cells (untransformed), 72 h, read-out: IC50. As to the method: as §1, §2
Series [19] relates to CHO Chinese hamster ovary cells. The series is described as follows: XTT dye binding cytotoxicity assay, CHO. The class given is cell-based. The settings on record: Cricetulus griseus; CHO, Chinese hamster ovary (untransformed); 72 h; read-out: IC50. On the procedure: as §1, §2
In series [20] the test system is A-549 lung carcinoma cells. The series is described as follows: XTT dye binding cytotoxicity assay, A-549. In kind it is cell-based. The settings on record: Homo sapiens, A549; A-549, lung carcinoma; 72 h; read-out: IC50. On the procedure:
as §1, §2

Series [21] can be described thus: Comparative toxicities (lethality) in mice.

In general, IC50 refers to the concentration at which inhibition is half-maximal. What is called half-life is the time in which the quantity being followed falls by half.

Protocol for tumor cell lines: Antiproliferative activities of the onium salts were determined using the XTT dye binding assay. Cells were harvested with trypsin/EDTA (Irvine Scientific), washed, resuspended in the appropriate medium, and counted in a hemocytometer using Trypan Blue to determine viability. […] After 72 hours, XTT binding dye was added and incubation was continued for 4 hours. The inhibition of cell proliferation was quantified using a Molecular Devices Microplate Reader. […] The concentration of drug which inhibited growth of cells by 50% was calculated from duplicated determinations.

For `CC(=O)O[C@H]1C(=O)[C@@]2(C)[C@H]([C@H](OC(=O)c3ccsc3)[C@]3(O)C[C@H](OC(=O)[C@H](O)[C@@H](NC(=O)c4ccccc4)c4ccccc4)C(C)=C1C3(C)C)[C@]1(OC(C)=O)CO[C@@H]1C[C@@H]2O` [C-2-substituted thiophene derivative], the “inhibition of calcium chloride induced depolymerization of microtubules” value in the series on tubulin was “inhibited depolymerization similar to taxol”.
Take `CC(=O)O[C@H]1C(=O)[C@]2(C)[C@@H](Oc3cccc[n+]3C)C[C@H]3OC[C@@]3(OC(C)=O)[C@H]2[C@H](OC(=O)c2ccccc2)[C@]2(O)C[C@H](OC(=O)[C@H](O)[C@@H](NC(=O)c3ccccc3)c3ccccc3)C(C)=C1C2(C)C` [Compound 3]: the cytotoxicity in words entry in the series on tumor cell lines is listed as “cytotoxicities comparable to taxol on human tumor cell lines”. Moreover, the IC50 in series [1] is 123 nM; in series [2], 35.3 nM; in series [3], 0.62 nM; with NHDF dermal fibroblast it was 85.5 nM; in the series with L-1210 leukemia cells it was 178 nM; in series [4] it was 140 nM. Further, the IC50 in series [7] is 9.94 nM; in series [8], 19.6 nM; in [9], 12.8 nM; in [10], 454 nM; in [11], 8.79 nM; in series [12], 70.7 nM. Also, the IC50 in [15] came to 5.85 nM; in series [16] it was 34.5 nM; in series [17], 84.2 nM; in the series with U-2511 CNS cancer cells, 170 nM; in the series on SK-Mel-28 melanoma cells it was 702 nM; in series [18], 81 nM. The IC50 is 612 nM in series [19] and 42.5 nM in series [20]. Also, the “inhibition of calcium chloride induced depolymerization of microtubules” value with tubulin was “as effective as taxol in inhibiting calcium induced microtubule disassembly”; in the series on tubulin (listed as 7-MPA salt), “essentially complete inhibition of depolymerization”; in the series with tubulin (listed as taxol-7-MPA) it was “suppressed by taxol and taxol-7-MPA”. Besides, the “antitumor activity, PC-3” value in [5] (1.0 mM, 400 μL i.p., established tumors) is listed as “essentially no antitumor activity”. Also, in [5] (in vivo), the “mice surviving treatment, PC-3” value is given as “all of the mice given either the 2'- or 7-isomers survived”. Also, in series [6] (HPLC analysis), the “stability under the assembly-disassembly conditions” value is reported as “completely stable”. Further, the Toxicity result in series [13] (Table II, in vivo) is listed as “low”. Besides, in [13] (at end of experiments), the “% survival” value was 100%. The half-life in [14] was found to be 180 min. Moreover, in series [14], the recovery was 20%. In addition, the “in vivo antitumor efficacy in words” value in the series on human tumor xenografts is recorded as “completely failed to inhibit the growth of these tumors in nude mice”.
For `CC(=O)O[C@@]12CO[C@@H]1C[C@H](O)[C@@]1(C)C(=O)[C@H](O)C3=C(C)[C@@H](OC(=O)[C@H](O)[C@@H](NC(=O)OC(C)(C)C)c4ccccc4)C[C@@](O)([C@@H](OC(=O)c4ccccc4)[C@H]21)C3(C)C` [Compound 5, N-debenzoyl-N-tert-butoxycarbonyl-10-deacetyl Taxol, reference compound], the IC50 stood at 71.2 nM in series [1]; 0.84 nM in [2]; 0.017 nM in series [3]; 65 nM with NHDF dermal fibroblast; 0.59 nM in the series on L-1210 leukemia cells; 0.65 nM in series [8]. For the same compound, the IC50 in [9] was determined as 0.12 nM; in series [10], 41.5 nM; in series [11], 1.56 nM; in series [15], 0.035 nM; in [16] it was 0.011 nM; in series [17] it was 0.11 nM. For the same compound, the IC50 in the series with U-2511 CNS cancer cells is 21 nM; with SK-Mel-28 melanoma cells it was 614 nM; in [18], 32.9 nM; in series [19], 80 nM; in series [20], 0.8 nM. Besides, the “50% lethality and toxicities, in words” value in series [21] (conventional formulation, relative to taxol) was 50% lethality and toxicities at generally lower dosages as compared to taxol.
For the compound `CC(=O)O[C@@]12CO[C@@H]1C[C@H](O)[C@@]1(C)C(=O)[C@H](O)C3=C(C)[C@@H](OC(=O)[C@H](Oc4cccc[n+]4C)[C@@H](NC(=O)OC(C)(C)C)c4ccccc4)C[C@@](O)([C@@H](OC(=O)c4ccccc4)[C@H]21)C3(C)C` [Compound 6], the IC50 in [1] worked out at 596 nM; in series [2] it was 3.08 nM; in the series on NHDF dermal fibroblast, 1.59 nM; in the series with L-1210 leukemia cells it was 0.019 nM; in series [4], 0.065 nM; in [8], 7.34 nM. Moreover, the half-maximal inhibitory concentration (IC50) amounted to 19.9 nM in series [9]; 0.56 nM in series [10]; 4.12 nM in series [11]; 0.89 nM in [15]; 0.59 nM in [16]; 81.8 nM in series [17]. Besides, the IC50 was determined as 0.61 nM with U-2511 CNS cancer cells; 68.2 nM in the series with SK-Mel-28 melanoma cells; 56 nM in series [18]; 292 nM in series [19]; 0.72 nM in [20]. Also, the storage stability result in series [6] (1-2% Tween #80 or Tween #20 with or without ethyl alcohol) is “stable and may stored without significant loss”. Also, the Toxicity result in [21] (mouse, in vivo) is listed as “minimal toxicity”. Besides, the lethality entry in series [21] (mouse, in vivo) was “no lethality”. Moreover, in series [14], the half-life stood at 0.9 min. Further, the recovery in [14] turned out to be 18%.

The record behind these values is patent US5731334A, “Method for treating cancer using taxoid onium salt prodrugs” (priority 1995, dated 1998).
